Marks after values point to notes of the source that are not given here.
Assays:
Type in all cases: in vivo, human (children six months to eight years)
asthmatic children [1] = assay: Phase III study of four dose regimens of budesonide nebulizing suspension and placebo in asthmatic children (Example 2); design: Nighttime Asthma Symptom Score: scale not given here; FEV1: unit not given here; details: for FEV1 / Evening PEF / Morning PEF / Daytime Asthma Symptom Score / Nighttime Asthma Symptom Score / Number of Days Use of Breakthrough Medication: adjusted mean change from baseline over 12 weeks; for proportion of patients discontinuing due to worsening asthma: placebo 26.3%; for total proportion of patients who were discontinued: placebo 39%
Procedure: The objectives of the study were to compare the relative efficacy and safety of budesonide in a nebulizing suspension (0.25 mg administered once a day (QD), 0.25 mg administered twice per day (BID), 0.5 mg BID or 1.0 mg QD) in pediatric asthmatic patients aged six months to eight years.
(§1) This was a multicenter, randomized double-blind, placebo-controlled, parallel-group study.
Patients were mild to moderate asthmatic children aged six months to eight years of age with a diagnosis of asthma as defined by the National Institutes of Health of the U.S. Department of Health and Human Services, including:
(a) exacerbations of cough and/or wheezing on a frequent basis, including nocturnal asthma, with infrequent severe exacerbations during the last six months; (b) daily use of at least one chronic asthma medication (which could have been an inhaled GCS) with periodic use of breakthrough medication for at least three months prior to Visit 1; and (c) basal FEV1 of […] of predicted and reversibility of […] at 15±5 minutes after a standard dose of inhaled bronchodilator for patients capable of performing consistent PFTs. […]
Primary efficacy variables were mean changes from baseline in daytime and nighttime asthma symptom scores over the 12-week treatment phase. The symptom scores were obtained as in Example 1.
Secondary efficacy variables were: (a) the number of days breakthrough (bronchodilator) medication was used; (b) spirometry test variables, including FEV1, FEF25-75, and FVC performed at clinic visits in the subset of patients capable of performing spirometry testing; (c) PEF measured daily in the morning and evening in the subset of patients capable of performing PEFs; and (d) proportion of patient discontinuations from the study.
(§2) Safety variables were: (a) reported adverse events that could be due to the drug; (b) morning basal and post-ACTH-simulation effects on plasma cortisol levels (HPA-axis function) in a subset of patients; and (c) changes in physical examinations, vital signs and clinical laboratory tests, including oropharyngeal and nasal fungal cultures.
(§3) Analysis of variance was used to compare differences between treatment groups for all efficacy variables, with the exception of patient discontinuations from the study, which was analyzed using Fisher's exact test. Analysis of variance was also used for morning basal and post-ACTH-simulation effects on plasma cortisol levels. Descriptive statistics were used to present all other safety data.
A total of 471 patients were evaluated for efficacy (all patients treated). Data are expressed as the adjusted mean change from baseline over the 12-week treatment phase, all patients treated, last value carried forward (*p≦0.050; **p≦0.010 and ***p≦0.001, versus placebo; “n” is the number of patients).

[2] = tested on: plasma cortisol levels (HPA-axis function); assay: Basal and post-ACTH-stimulated plasma cortisol levels, Example 1; details: 0.25, 0.5, 1.0 mg once a day; baseline to week 12 versus placebo
Procedure: as §2, with “effects” for “events”, “function);” for “function) in a subset of patients;”, “signs,” for “signs”
as §3, with “patient outcomes,” for “patient discontinuations from the study,”, “which were” for “which was”
[…] is stimulated by injection (intravenous for young children and intramuscular for infants) of corticotropin one hour before morning blood sampling.

asthmatic children [3] = assay: Phase III study of three dose levels of once-a-day budesonide nebulizing suspension and placebo in asthmatic children (Example 1); details: for Asthma scores: Daytime / Asthma scores: Nighttime: 0-3 score; for proportion of patients discontinuing due to worsening asthma: placebo 23%; for total proportion of patients who were discontinued: placebo 28%
Procedure: The objectives of the study were to compare the relative efficacy and safety of a nebulizing suspension of budesonide (containing 0.25 mg, 0.5 mg, or 1.0 mg of budesonide per dose), administered once a day, in pediatric asthmatic patients aged six months to eight years.
as §1
Patients were asthmatic children who had not been treated with steroids in the 30 days prior to initiation of the study treatment.
Budesonide was administered once per day as a nebulized suspension, at 0.25 mg, 0.5 mg, or 1.0 mg per administration, via a Pari LC-Jet Plus® nebulizer connected to a Pari Master® compressor (Pari Respiratory Equipment, Inc., Richmond, Va.) with a face mask or a mouth piece. The placebo was the solvent used for the budesonide suspension (0.1 mg disodium edetate, 8.5 mg NaCl, 0.2 mg polysorbate, 0.28 mg anhydrous citric acid, and 0.5 mg sodium citrate per 1 ml water) but without budesonide.
Primary efficacy variables were mean changes from baseline in daytime and nighttime asthma symptom scores over the 12 week treatment phase. The symptom scores are based on the subjective evaluation by the patients or their parents based on a 0-3 rating system in which 0=no symptoms, 1=mild symptoms, 2=moderate symptoms, and 3=severe symptoms.
Secondary efficacy variables were: (a) patient outcomes, including the proportion of patients who were discontinued from the study for any reason and the proportion of patients who were discontinued from this study due to worsening asthma; (b) the number of days breakthrough (bronchodilator) medication was used; (c) spirometry test variables, including FEV1, FEF25-75 (forced expiratory flow during the middle half of the forced vital capacity in liters per second) and FVC (forced vital capacity in liters), performed at clinic visits in the subset of patients capable of performing spirometry testing; (d) PEF (peak expiratory flow in liters per minute) measured daily in the morning and evening in the subset of patients capable of performing PEF testing; (e) changes in health status measurements, including the Modified Functional Status II Scale Child Health Status Scale and the RAND General Health Index; and (f) differences in asthma-related health care utilization and indirect health care costs.
as §2, with “effects” for “events”, “function);” for “function) in a subset of patients;”, “signs,” for “signs”
as §3, with “patient outcomes,” for “patient discontinuations from the study,”, “which were” for “which was”
Results of nighttime and daytime asthma symptom scores, and the number of days of use of breakthrough medication are presented in Table 1. Data are expressed as the adjusted mean change from baseline over the 12-week treatment phase, all patients treated, last value carried forward (*p≦0.050, **p≦0.010, and ***p≦0.001 versus placebo (PBO); “n” is number of patients). Thus improvements are indicated by negative values of these variables.

[4] = tested on: plasma cortisol levels (HPA-axis function); assay: Basal and post-ACTH-stimulated plasma cortisol levels, Example 2; details: 0.25 mg QD, 0.25 mg BID, 0.5 mg BID, 1.0 mg QD; baseline to week 12 versus placebo
Text: as §2, §3

[5] = 0.25 mg BID, n = 34, no unit in table
[6] = 0.5 mg BID, n = 29, no unit in table
[7] = 1.0 mg QD, n = 34, no unit in table
[8] = 0.25 mg once a day nebulized, adjusted mean change from baseline over 12 weeks, n = 91
[9] = 0.5 mg once a day nebulized, adjusted mean change from baseline over 12 weeks, n = 82
[10] = 1.0 mg once a day nebulized, adjusted mean change from baseline over 12 weeks, n = 93

CCCC1O[C@@H]2C[C@H]3[C@@H]4CCC5=CC(=O)C=C[C@]5(C)[C@H]4[C@@H](O)C[C@]3(C)[C@]2(C(=O)CO)O1 (stereo partly drawn) [Budesonide, budesonide]
FEV1 (asthmatic children [1]; 0.25 mg BID, n = 33, no unit in table): 0.03 | Evening PEF (asthmatic children [1]; [5]): 19.2* ^ | Morning PEF (asthmatic children [1]; [5]): 23.0** | Daytime Asthma Symptom Score (asthmatic children [1]; 0.25 mg BID, n = 97): −0.40* | Nighttime Asthma Symptom Score (asthmatic children [1]; 0.25 mg BID, n = 97): −0.49*** | Number of Days Use of Breakthrough Medication (asthmatic children [1]; 0.25 mg BID, n = 97): −5.22*** days | proportion of patients discontinuing due to worsening asthma (asthmatic children [1]; 0.25 mg BID, p=0.029): 13.1% | total proportion of patients who were discontinued (asthmatic children [1]; 0.25 mg BID): 21% | FEV1 (asthmatic children [1]; 0.25 mg QD, n = 31, no unit in table): 0.07 | Evening PEF (asthmatic children [1]; 0.25 mg QD, n = 32, no unit in table): 16.8* | Morning PEF (asthmatic children [1]; 0.25 mg QD, n = 32, no unit in table (baseline PEF in L/min)): 10.9 | Daytime Asthma Symptom Score (asthmatic children [1]; 0.25 mg QD, n = 92): −0.28 | Nighttime Asthma Symptom Score (asthmatic children [1]; 0.25 mg QD, n = 93): −0.28 | Number of Days Use of Breakthrough Medication (asthmatic children [1]; 0.25 mg QD, n = 93): −4.39* days | proportion of patients discontinuing due to worsening asthma (asthmatic children [1]; 0.25 mg QD): 16.0% | total proportion of patients who were discontinued (asthmatic children [1]; 0.25 mg QD): 21% | Evening PEF (asthmatic children [1]; [6]): 21.0** | FEV1 (asthmatic children [1]; [6]): 0.17* | Morning PEF (asthmatic children [1]; [6]): 24.8** | Daytime Asthma Symptom Score (asthmatic children [1]; 0.5 mg BID, n = 96): −0.46** | Nighttime Asthma Symptom Score (asthmatic children [1]; 0.5 mg BID, n = 96): −0.42** | Number of Days Use of Breakthrough Medication (asthmatic children [1]; 0.5 mg BID, n = 96): −4.92** days | proportion of patients discontinuing due to worsening asthma (asthmatic children [1]; 0.5 mg BID): 15.3% | total proportion of patients who were discontinued (asthmatic children [1]; 0.5 mg BID): 19% | Evening PEF (asthmatic children [1]; [7]): 14.1 | FEV1 (asthmatic children [1]; [7]): 0.11 | Morning PEF (asthmatic children [1]; [7]): 17.1* | Daytime Asthma Symptom Score (asthmatic children [1]; 1.0 mg QD, n = 93): −0.37* | Nighttime Asthma Symptom Score (asthmatic children [1]; 1.0 mg QD, n = 93): −0.40** | Number of Days Use of Breakthrough Medication (asthmatic children [1]; 1.0 mg QD, n = 93): −4.38* days | proportion of patients discontinuing due to worsening asthma (asthmatic children [1]; 1.0 mg QD): 21.1% | total proportion of patients who were discontinued (asthmatic children [1]; 1.0 mg QD): 31% | number of patients with clinically significant changes in nasal or oral fungal cultures between treatment groups (asthmatic children [1]; four regimens, 12 weeks): no apparent differences | type, incidence or severity of adverse events compared to placebo (asthmatic children [1]; in vivo): no clinically relevant differences | vital signs or physical examination outcomes between treatment groups (asthmatic children [1]; in vivo): no clinically relevant differences | HPA-axis suppression (basal and post-ACTH-stimulated plasma cortisol) [2]: no evidence of HPA-axis suppression | Asthma scores: Daytime (asthmatic children [3]; [8]): −0.57** | Asthma scores: Nighttime (asthmatic children [3]; [8]): −0.49*** | FEV1 (asthmatic children [3]; 0.25 mg once a day, adjusted mean change from baseline over 12 weeks, n = 29): -0.01 L | Morning PEF (asthmatic children [3]; 0.25 mg once a day, adjusted mean change from baseline over 12 weeks, n = 44): 14.4 L/min | Days of use of bronchodilator (asthmatic children [3]; 0.25 mg once a day, adjusted mean change from baseline over 12 weeks, n = 91): −6.26* days | proportion of patients discontinuing due to worsening asthma (asthmatic children [3]; 0.25 mg once a day): 14% | total proportion of patients who were discontinued (asthmatic children [3]; 0.25 mg once a day): 19% | Asthma scores: Daytime (asthmatic children [3]; [9]): −0.46* | Asthma scores: Nighttime (asthmatic children [3]; [9]): −0.42** | FEV1(L) (asthmatic children [3]; 0.5 mg once a day, adjusted mean change from baseline over 12 weeks, n = 28): 0.03* L | Morning PEF (asthmatic children [3]; 0.5 mg once a day, adjusted mean change from baseline over 12 weeks, n = 41): 6.5 L/min | Days of use of bronchodilator (asthmatic children [3]; 0.5 mg once a day, adjusted mean change from baseline over 12 weeks, n = 82): −5.31* days | proportion of patients discontinuing due to worsening asthma (asthmatic children [3]; 0.5 mg once a day): 17% | total proportion of patients who were discontinued (asthmatic children [3]; 0.5 mg once a day): 24% | Asthma scores: Daytime (asthmatic children [3]; [10]): −0.50* | Asthma scores: Nighttime (asthmatic children [3]; [10]): −0.42** | FEV1(L) (asthmatic children [3]; 1.0 mg once a day, adjusted mean change from baseline over 12 weeks, n = 33): 0.03* L | Morning PEF (asthmatic children [3]; 1.0 mg once a day, adjusted mean change from baseline over 12 weeks, n = 55): 10.9 L/min | Days of use of bronchodilator (asthmatic children [3]; 1.0 mg once a day, adjusted mean change from baseline over 12 weeks, n = 93): −5.98* days | proportion of patients discontinuing due to worsening asthma (asthmatic children [3]; 1.0 mg once a day): 13% | total proportion of patients who were discontinued (asthmatic children [3]; 1.0 mg once a day, p=0.020): 14% | vital signs or physical examination differences between treatment groups (asthmatic children [3]; in vivo): no clinically relevant differences | clinically significant changes in nasal or oral fungal cultures between treatment groups (asthmatic children [3]; three doses once a day, 12 weeks): no clinically relevant differences | HPA-axis suppression (basal and post-ACTH-stimulated plasma cortisol) [4]: no evidence of HPA-axis suppression

From US20130029956A1, “NEW METHOD” (ASTRAZENECA AB, priority 1997, published 2013)
